Key:
adult mice = test: Ozone-exposure model, pre-treatment of adult mice; format: in vivo, mouse; conditions: pre-treatment prior to ozone-exposure
NKT cell clone BM2a.3 = test: Human NKT cell clone BM2a.3 with CD1d-transfected cells, IFN-γ; format: cell-based
Experimental: (§1) In FIG. 7A, NKT cell lines were cocultured with BM-derived DCs (BMDCs) and α-GalCer (100 ng/ml), PI57 (10 μg/ml), or vehicle for 48 hours, with or without pre-incubation with anti-CD1d (10 μg/ml). IFN-γ was measured by ELISA. In FIG. 7B, murine NKT cell lines were cocultured as in 7A with BMDCs from WT, Cd1d^−/−, Myd88^−/−, or Trif^−/− mice. Cells were treated with α-GalCer (100 ng/ml), PI57 (2.5, 5, or 10 μg/ml), PBS30 (1, 2.5, or 5 μg/ml), or vehicle for 48 hours. IFN-γ and IL-4 were measured by ELISA. […] In FIG. 7D, mouse NKT cell lines were stained with PE-labeled CD1d tetramers of PI57 or α-GalCer at 4° C. for 45 minutes or 37° C. for 25 minutes, and with anti-TCRβ-APC antibody. Top: Lymphocytes were gated in the FSC/SSC window. Bottom: Percentage of CD1d tetramer+ cells. […] In FIG. 7G, CD1d Fc-coated Maxisorp plates were loaded with lipid and cultured with 5×10^4 NKT cells. IFN-γ was analyzed by ELISA after 24 hours. Data represent 3 or 5 independent experiments.
CD1d transfected K562 cells and CD1d restricted human NKT cell clone BM2a.3 were previously described (62). The anti-CD1d antibody (clone 12.1.1.1) experiments have been performed as described (63).

T-bet−/− mice = test: OVA-induced AHR in T-bet−/− mice treated with glycolipid at 2 weeks of age; format: in vivo, mouse; conditions: 2 wk old T-bet−/− mice; α-C-GalCer 5 μg or PI57 50 μg; AHR measured on day 44
Experimental: In FIGS. 6A-6B, two-week-old BALB/c mice (n=6-8/group) (6A) or Tbet^−/− mice (6B) (n=4-6 per group) received 5 μg […] (cGal), 2 μg α-GalCer, or vehicle. After OVA sensitization and challenge, AHR was measured on day 44. In FIG. 6C, donor mice were treated with α-C-GalCer (5 μg) or vehicle i.p. NKT cells served as donors, as in FIG. 4A (n=4 per group). Lung resistance (left) and cell counts in BAL (right) were assessed. […] In FIG. 6E, mice received PI57 (50 μg), α-GalCer (2 μg), or vehicle i.p., and lungs were examined 1 or 14 days later for CD4 and CD8 expression. In FIG. 6F, absolute numbers of CD4^+ NKT and DN NKT subsets from 6E were assessed. In FIG. 6G, BALB/c mice (n=5-8/group) received PI57 or vehicle i.p. Lung resistance (left) and BAL cells (right) were assessed. In FIG. 6H, BALB/c mice treated with PI57 (50 μg), PBS30 (Sphingomonas glycolipid) (50 μg), or vehicle i.p. were assessed for AHR as in 6G. […] Lung resistance (left) and BAL cells (right) were assessed (n=4 per group). […]
In FIG. 10, NKT cells from α-GalCer or vehicle-treated mice were adoptively transferred to OVA-sensitized BALB/c recipients. AHR was measured after OVA challenge. […] After sensitization and challenge with OVA, AHR was measured on day 44. […]
To induce AHR, BALB/c mice were sensitized with 100 μg of OVA (Sigma-Aldrich) in alum administered i.p (on day 0). […] AHR was assessed on the day after last OVA-challenge. […]

BALB/c mice = test: OVA-induced AHR in adult mice treated with glycolipid at 2 weeks of age; format: in vivo, mouse; conditions: 2 wk old mice treated i.p. (α-C-GalCer 5 μg, α-GalCer 2 μg, PI57 50 or 100 μg, PBS30 50 μg); AHR induced 6 wks (42 days) later
Experimental: In FIGS. 6A-6B, two-week-old BALB/c mice (n=6-8/group) (6A) or Tbet^−/− mice (6B) (n=4-6 per group) received 5 μg […] (cGal), 2 μg α-GalCer, or vehicle. After OVA sensitization and challenge, AHR was measured on day 44. In FIG. 6C, donor mice were treated with α-C-GalCer (5 μg) or vehicle i.p. NKT cells served as donors, as in FIG. 4A (n=4 per group). Lung resistance (left) and cell counts in BAL (right) were assessed. […] In FIG. 6E, mice received PI57 (50 μg), α-GalCer (2 μg), or vehicle i.p., and lungs were examined 1 or 14 days later for CD4 and CD8 expression. In FIG. 6F, absolute numbers of CD4^+ NKT and DN NKT subsets from 6E were assessed. In FIG. 6G, BALB/c mice (n=5-8/group) received PI57 or vehicle i.p. Lung resistance (left) and BAL cells (right) were assessed. In FIG. 6H, BALB/c mice treated with PI57 (50 μg), PBS30 (Sphingomonas glycolipid) (50 μg), or vehicle i.p. were assessed for AHR as in 6G. In FIG. 6I, donor mice were treated with PI57 (50 μg) or vehicle i.p. NKT cells served as donors as in FIG. 4A. Lung resistance (left) and BAL cells (right) were assessed (n=4 per group). […] Data represent 2-3 independent experiments. *P<0.05, #P<0.05, ***P<0.001 versus vehicle-OVA (6C, 6G, and 6I), DN NKT saline (6F), and CD4^+ NKT saline (6F).
Induction of AHR and measurement of airway responsiveness in the OVA model.
To induce AHR, BALB/c mice were sensitized with 100 μg of OVA (Sigma-Aldrich) in alum administered i.p (on day 0). After sensitization, mice were exposed to intranasal antigen (50 μg OVA/day) or normal saline for 1 day (day 7; single dose challenge protocol), or for 3 consecutive days (days 7, 8, 9). AHR was assessed on the day after last OVA-challenge. Control mice received i.p. injection of PBS and intranasal administrations of normal saline.

murine NKT cell lines = test: Mouse NKT cell lines cocultured with BM-derived DCs, cytokine ELISA; format: cell-based; conditions: 48 hours
Experimental: as §1
To establish mouse NKT cell lines, NKT cells were purified by a two-step sorting strategy using MACS. Spleen cells from BALB/c or BALB/c Vα14Jα18 Tg mice were depleted of T cells, B cells, granulocytes, macrophages and DCs by AutoMacs, then stained with PE conjugated-CD1d tetramer and FITC conjugated-anti-TCRβ mAb, and sorted using a MoFlo cell sorter (Dako). The purity of the sorted cells was >99%. To propagate the cells, sorted NKT cells were cultured in 96-well flat-bottom plates (1×10^5 cells/well) with 5×10^3 bone-marrow derived DC in the presence of murine IL-15 (Pepro Tech). Cells were subcultured and restimulated with fresh DCs once a week.
Mouse or human IL-4 and IFN-γ levels were measured by ELISA, as previously described (20). Mean values of triplicate cultures were shown. Data are representative of two or three independent experiments.

SMILES: CCCCCCCCCCCCCC(=O)OC[C@H]1O[C@H](O[C@H]2CC[C@@]3(C)C(=CC[C@H]4[C@@H]5CC[C@H]([C@H](C)CCCC(C)C)[C@@]5(C)CC[C@@H]43)C2)[C@H](O)[C@@H](O)[C@@H]1O [PI57, Cholesteryl 6-O-tetradecanoyl-α-D-glucopyranoside]
- airway hyperreactivity after ozone exposure (adult mice): inhibit or suppress airway hyperreactivity
- lung inflammation after ozone exposure (adult mice): inhibit or suppress airway hyperreactivity and lung inflammation
- response (IFN-γ production) of Vα24+ NKT cell clone BM2a.3 (NKT cell clone BM2a.3): responded to this glycolipid
- protection against OVA-induced AHR in T-bet−/− mice (T-bet−/− mice): did not protect against subsequent OVA-induced AHR
- protection against development of OVA-induced AHR (lung resistance) (BALB/c mice): protected the mice from the development of OVA-induced AHR
- cytokine production with DCs from CD1d−/− mice (murine NKT cell lines; BMDCs from Cd1d−/− mice): failed to support PI57 induced cytokine production
- cytokine production with DCs from MyD88−/− or Tri−/− mice (murine NKT cell lines; BMDCs from Myd88−/− or Trif−/− mice): induced cytokine production
- IFN-γ production by NKT cell lines + dendritic cells (murine NKT cell lines; PI57 10 μg/ml, BMDCs): induced the production of IFN-γ in a CD1d-restricted manner
- cytokine (IFN-γ) production after pre-incubation with anti-CD1d mAb (murine NKT cell lines; PI57 10 μg/ml, anti-CD1d 10 μg/ml): blocked
- IFN-γ and IL-4 production compared to PBS30 or α-GalCer (murine NKT cell lines; WT BMDCs, PI57 2.5, 5 or 10 μg/ml): induced IFN-γ and less IL-4

— patent US9657046B2, “Methods for the treatment and prevention of inflammatory diseases” (Children's Medical Center Corporation, priority 2010, dated 2017)
